# Patent US9079048B2, “Cosmetic or dermopharmaceutical composition comprising enkephalin-derived peptides for reducing and/or eliminating facial wrinkles” (Lipotec, S.A., priority 2005, dated 2015)
# Non-standard residues stand in square brackets, D forms with d. No end group written: not given here.
# Experiments:
# Assay type in all cases: cell-based
# [1] = system: primary cultures of rat hippocampus neurons; assay: Neuronal exocytosis of [3H]-L-glutamate; conditions: 1 mM peptide alone, 1 hour at 37° C; depolarization with 75 mM KCl and 2 mM CaCl2; FIG. 4
# Method: To determine if the enkephalin-derived peptides inhibit the neuronal exocytosis of neurotransmitters, their activity on the release of the neurotransmitter L-glutamate from primary cultures of rat hippocampus neurons was monitored. The exocytosis of this neurotransmitter in neuronal cultures can be achieved by means of the […] depolarization of the cells. The primary cultures of rat embryo hippocampus are prepared by means of conventional methods [Blanes-Mira, C., Merino, J. M., Valera, E., Fernandez-Ballester, G., Gutierrez, L. M., Viniegra, S., Pérez-Payá, E. and Ferrer-Montiel, A. Small peptides patterned after the N-terminus domain of SNAP25 inhibit SNARE complex assembly and regulated exocytosis. J. Neurochem. 88, 124-135] and are maintained in culture for 14 days in an incubator at 37° C. and 5% CO2. The cultures are incubated with [^3H]-L-glutamine to load them with [^3H]-L-glutamate for 3 hours at 37° C. The excess [^3H]-L-glutamine is then washed and they are incubated with 1 mM of the peptides to be studied for 1 hour at 37° C. The release of [^3H]-L-glutamate is carried out by means of depolarization with 75 mM KCl and 2 mM CaCl2 buffered in physiological buffer for 10 minutes at 37° C. The culture medium is collected and the amount of [^3H]-L-glutamate is quantified in a beta radioactivity counter. The results are standardized with respect to the release of [^3H]-L-glutamate in the absence of the peptide and are corrected with respect to the baseline release in the absence of calcium. […] The incubation with the enkephalin-derived peptide defined by SEQ ID NO: 6 caused a 4% inhibition.
# In order to determine if the activity of enkephalin-derived peptides is additive and/or synergistic with the exocytosis inhibiting peptide Argireline®, defined by SEQ ID NO: 5, the potency of both peptides for separately and jointly inhibiting the electrically evoked release of [^3H]-L-glutamate in the presence of Ca^2+ was compared. […]
# [2] = system: neurons in primary cultures of rat dorsal root ganglia; assay: Neuronal excitability, action potentials evoked by chemical stimulus (pH 6.0), patch clamp current-clamp; conditions: 1 mM peptide
# Method: (§1) The activity of the enkephalin-derived peptide defined by SEQ ID NO: 7 (Tyr-D-Ala-Gly-Phe-Leu) on the excitability of neurons was studied in primary cultures of rat dorsal root ganglia. These neurons were extracted following widely known methods [Nicol, G. D., Lopshire, J. C. and Pafford, C. M. (1997) Tumor necrosis factor enhances the capsaicin sensitivity of rat sensory neurons. J. Neurosci. 17, 975-982]. The neurons were cultured in a DMEM medium supplemented with 10% bovine serum, 5% horse serum and 50 ng/mL NGF for 2 days and the electrical activity was followed by means of a patch clamp technique with a conventional electrophysiology equipment in the current-clamp configuration [Hille, B. (2001) Ion channels of excitable membranes. Third Ed. Sinauer Associates, Inc]. Two neuron stimulation protocols were used to determine the inhibitory effect of the enkephalin-derived peptide defined by SEQ ID NO: 7.
# The neurons were first stimulated by means of a chemical stimulus such as the exposure to a buffered solution at pH 6.0. In these conditions, acid-dependent channels depolarizing the neuronal membrane are activated, triggering action potentials (FIG. 1). […] The inhibition of neuronal excitability caused by the enkephalin-derived peptide defined by SEQ ID NO: 7 is reversible as shown by the recovery of said excitability after eliminating the peptide from the extracellular medium. […]
# [3] = system: neurons in primary cultures of rat dorsal root ganglia; assay: Neuronal excitability, electrically evoked action potentials (40 mV depolarizing stimulus), patch clamp current-clamp; conditions: 1 mM peptide
# Method: as §1
# Secondly, the effect of the enkephalin-derived peptide defined by SEQ ID NO: 7 on electrically evoked neuronal activity was evaluated. To that end, the neurons were excited with a depolarizing electrical stimulus of 40 mV from their rest potential. As a result, the repetitive action potentials were triggered throughout the electrical stimulation time (FIG. 2). […]
Substance,inhibition of exocytosis of [3H]-L-glutamate [1] [%],"effect on action potentials evoked by exposure to acidic extracellular medium ([2]; buffered solution at pH 6.0, FIG. 1)","reversibility of the inhibition of neuronal excitability after eliminating the peptide ([2]; pH 6.0 stimulus, after washing)",reversibility of the inhibition of electrically evoked action potentials ([3]; after washing),"effect on electrically evoked action potentials ([3]; depolarizing electrical stimulus of 40 mV from rest potential, FIG. 2)"
"Argireline®: exocytosis inhibiting peptide, acetyl hexapeptide-8 marketed by Lipotec, residues 12 to 17 of protein SNAP-25 (Ac-EEMQRR-NH2; listed as Homo sapiens) [reference compound]",18,–,–,–,–
"Tyr-D-Ala-Gly-Phe-Leu (Y[dA]GFL; listed as Homo sapiens) [SEQ ID NO: 7, enkephalin-derived peptide]",12,inhibition of the action potentials,reversible,partially reversible,decrease in the frequency and amplitude of the action potentials
"Tyr-Gly-Phe-Leu (YGFL; printed: Tyr-Gly-Phe-Leu) [SEQ ID NO: 6, enkephalin-derived peptide]",4,–,–,–,–
